Test: clinical
Conditions: human, plasma, oral
Experimental: Clinical Trial Outline. […] All solid tumor types are eligible for the trial. […] An expansion cohort was included at the RP2D level to confirm safety and tolerability of the combination. […] In Part 2, patients were treated by giving both agents twice daily (BID dosing schedule).
Plasma samples were analyzed for AMXT 1501 concentration via a LC/MS^2 procedure (MI-0028-DB-AB; Agilux Laboratories, Worcester, Massachusetts), and the resulting concentration versus time data were used to estimate individual PK parameters using noncompartmental analysis (NCA).

## CCCCCCCCCCCCCCCC(=O)NCCCC[C@@H](N)C(=O)NCCCNCCCCNCCCN [AMXT 1501, D-lys(palmitoyl)-spermine]
400 mg, Tmax Median, Part 1 Cohort 3, 400 mg QD, Day 1
  Tmax: 5 h
1200 mg, AUC0-6 hr Mean, Part 1 Cohort 4, 1200 mg QD, Cycle 1 Day 1
  AUC(0-t): 197 ng·h/mL
1200 mg, AUC0-6 hr Mean, Part 1 Cohort 4, 1200 mg QD, Cycle 1 Day 14
  AUC(0-t): 1130 ng·h/mL
1200 mg, AUC0-6 hr Median, Part 1 Cohort 4, 1200 mg QD, Cycle 1 Day 1
  AUC(0-t): 238 ng·h/mL
1200 mg, AUC0-6 hr Median, Part 1 Cohort 4, 1200 mg QD, Cycle 1 Day 14
  AUC(0-t): 681 ng·h/mL
1200 mg, AUC0-t Mean, Part 1 Cohort 4, 1200 mg QD, Cycle 1 Day 1
  AUC(0-t): 2730 ng·h/mL
1200 mg, AUC0-t Mean, Part 1 Cohort 4, 1200 mg QD, Cycle 1 Day 14
  AUC(0-t): 4700 ng·h/mL
1200 mg, AUC0-t Median, Part 1 Cohort 4, 1200 mg QD, Cycle 1 Day 1
  AUC(0-t): 831 ng·h/mL
1200 mg, AUC0-t Median, Part 1 Cohort 4, 1200 mg QD, Cycle 1 Day 14
  AUC(0-t): 3490 ng·h/mL
1200 mg, Cmax Mean, Part 1 Cohort 4, 1200 mg QD, Cycle 1 Day 1
  Cmax: 104 ng/mL
1200 mg, Cmax Mean, Part 1 Cohort 4, 1200 mg QD, Cycle 1 Day 14
  Cmax: 276 ng/mL
1200 mg, Cmax Median, Part 1 Cohort 4, 1200 mg QD, Cycle 1 Day 1
  Cmax: 71.2 ng/mL
1200 mg, Cmax Median, Part 1 Cohort 4, 1200 mg QD, Cycle 1 Day 14
  Cmax: 227 ng/mL
1200 mg, Tmax Mean, Part 1 Cohort 4, 1200 mg QD, Cycle 1 Day 1
  Tmax: 11.3 h
1200 mg, Tmax Mean, Part 1 Cohort 4, 1200 mg QD, Cycle 1 Day 14
  Tmax: 6 h
1200 mg, Tmax Median, Part 1 Cohort 4, 1200 mg QD, Cycle 1 Day 1
  Tmax: 6 h
1200 mg, Tmax Median, Part 1 Cohort 4, 1200 mg QD, Cycle 1 Day 14
  Tmax: 6 h
1800 mg
  AUC: 14200 ng·h/mL
1800 mg, AUC0-6 hr Mean, Part 1 Cohort 5, 1800 mg QD, Cycle 1 Day 1
  AUC(0-t): 750 ng·h/mL
1800 mg, AUC0-6 hr Mean, Part 1 Cohort 5, 1800 mg QD, Cycle 1 Day 14
  AUC(0-t): 3110 ng·h/mL
1800 mg, AUC0-6 hr Mean, Part 1 Cohort 5, 1800 mg QD, Cycle 2 Day 14, n=1
  AUC(0-t): 7240 ng·h/mL
1800 mg, AUC0-6 hr Median, Part 1 Cohort 5, 1800 mg QD, Cycle 1 Day 1
  AUC(0-t): 662 ng·h/mL
1800 mg, AUC0-6 hr Median, Part 1 Cohort 5, 1800 mg QD, Cycle 1 Day 14
  AUC(0-t): 3020 ng·h/mL
1800 mg, AUC0-6 hr Median, Part 1 Cohort 5, 1800 mg QD, Cycle 2 Day 14, n=1
  AUC(0-t): 7240 ng·h/mL
1800 mg, AUC0-t Mean, Part 1 Cohort 5, 1800 mg QD, Cycle 1 Day 1
  AUC(0-t): 10200 ng·h/mL
1800 mg, AUC0-t Mean, Part 1 Cohort 5, 1800 mg QD, Cycle 1 Day 14
  AUC(0-t): 14200 ng·h/mL
1800 mg, AUC0-t Mean, Part 1 Cohort 5, 1800 mg QD, Cycle 2 Day 14, n=1
  AUC(0-t): 33700 ng·h/mL
1800 mg, AUC0-t Median, Part 1 Cohort 5, 1800 mg QD, Cycle 1 Day 1
  AUC(0-t): 12700 ng·h/mL
1800 mg, AUC0-t Median, Part 1 Cohort 5, 1800 mg QD, Cycle 1 Day 14
  AUC(0-t): 12800 ng·h/mL
1800 mg, AUC0-t Median, Part 1 Cohort 5, 1800 mg QD, Cycle 2 Day 14, n=1
  AUC(0-t): 33700 ng·h/mL
1800 mg, Cmax Mean, Part 1 Cohort 5, 1800 mg QD, Cycle 1 Day 1
  Cmax: 367 ng/mL
1800 mg, Cmax Mean, Part 1 Cohort 5, 1800 mg QD, Cycle 1 Day 14
  Cmax: 794 ng/mL
1800 mg, Cmax Mean, Part 1 Cohort 5, 1800 mg QD, Cycle 2 Day 14, n=1
  Cmax: 1950 ng/mL
1800 mg, Cmax Median, Part 1 Cohort 5, 1800 mg QD, Cycle 1 Day 1
  Cmax: 374 ng/mL
1800 mg, Cmax Median, Part 1 Cohort 5, 1800 mg QD, Cycle 1 Day 14
  Cmax: 766 ng/mL
1800 mg, Cmax Median, Part 1 Cohort 5, 1800 mg QD, Cycle 2 Day 14, n=1
  Cmax: 1950 ng/mL
1800 mg, Tmax Mean, Part 1 Cohort 5, 1800 mg QD, Cycle 1 Day 14
  Tmax: 5.5 h
1800 mg, Tmax Mean, Part 1 Cohort 5, 1800 mg QD, Cycle 2 Day 14, n=1
  Tmax: 6 h
1800 mg, Tmax Median, Part 1 Cohort 5, 1800 mg QD, Cycle 1 Day 1
  Tmax: 6 h
1800 mg, Tmax Median, Part 1 Cohort 5, 1800 mg QD, Cycle 1 Day 14
  Tmax: 6 h

Source: patent US20230321012A1 (priority 2021, published 2023)
